Measurements reported in patent publication US10981866B2 (THE UNITED STATES OF AMERICA, AS REPRESENTED BY THE …, priority 2017, dated 2021).

Biological target: bovine serum albumin (Bos taurus, UniProt P02769)
Experiment: binding kinetics of EB-TATE and bovine serum albumin
Details: unlabeled EB-TATE

Sequence of bovine serum albumin (P02769 25-607): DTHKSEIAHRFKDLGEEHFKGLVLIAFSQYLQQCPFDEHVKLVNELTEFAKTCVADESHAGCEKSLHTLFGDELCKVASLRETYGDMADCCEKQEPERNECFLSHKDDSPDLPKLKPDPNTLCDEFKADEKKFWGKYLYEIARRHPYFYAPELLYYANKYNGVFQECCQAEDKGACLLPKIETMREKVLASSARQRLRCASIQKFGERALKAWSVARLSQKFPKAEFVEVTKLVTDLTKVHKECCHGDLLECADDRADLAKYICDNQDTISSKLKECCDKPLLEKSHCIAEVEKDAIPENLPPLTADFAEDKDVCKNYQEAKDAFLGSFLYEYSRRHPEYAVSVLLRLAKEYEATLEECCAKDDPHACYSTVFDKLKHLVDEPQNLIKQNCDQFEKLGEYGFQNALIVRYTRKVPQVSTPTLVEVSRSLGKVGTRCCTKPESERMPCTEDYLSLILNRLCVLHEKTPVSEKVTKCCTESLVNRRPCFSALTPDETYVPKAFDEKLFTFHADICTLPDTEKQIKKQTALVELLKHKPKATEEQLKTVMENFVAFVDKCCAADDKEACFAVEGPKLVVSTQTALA

Cc1cc(-c2ccc(NC(=O)[C@@H](CCCCNC(=O)CCN3C(=O)CC(SCCC(=O)N[C@H](Cc4ccccc4)C(=O)N[C@H]4CSSCC(C(=O)NC(C(=O)O)[C@@H](C)O)NC(=O)[C@H]([C@@H](C)O)NC(=O)[C@H](CCCCN)NC(=O)[C@@H](Cc5c[nH]c6ccccc56)NC(=O)[C@H](Cc5ccccc5)NC4=O)C3=O)NC(=O)CN3CCN(CC(=O)O)CCN(CC(=O)O)CCN(CC(=O)O)CC3)c(C)c2)ccc1N=Nc1ccc2c(S(=O)(=O)O)cc(S(=O)(=O)O)c(N)c2c1O (some centres unmarked) [EB-TATE]
Kd, affinity to bovine serum albumin: μM Kd affinity | Kon and Koff, bovine serum albumin: high Kon and low Koff
